Results from patent US20240269109A1 (STICHTING MEDISCHE KLINIEK VELSEN, priority 2021, published 2024).

Key:
[1] = off-label patient trial, oromucosal/sublingual formulation; type: in vivo, human
Method: The formulation of the invention was used “off-label” to treat a number of patients to determine its effect as set out in Example 2.
In the Netherlands, 22 patients were treated with the formulation of Example 1a as follows: […]
10 patients had COVID-19 symptoms (and were positive and were seen by their general practitioner). All 10 patients presented with early signs of respiratory distress; tachypnea (more than 30 breaths per minute), high fever and dry cough and a decreased Sp02<90.
6 patients had post-COVID respiratory complaints. They were experiencing long-term complaints, ranging from coughing, fatigue and shortness of breath to anxiety and physical limitations.
6 patients suffered with various autoimmune diseases as follows: • 1 patient had rheumatoid arthritis. • 1 patient had scleroderma; • 1 patient had dermatomyositis; • 1 patient had morbus Parkinson; • 2 patients had psoriasis.
All patients were given the formulation as described in Example 1a above, up to 6 times a day, for up to 2 weeks.

[2] = high doses for local anesthesia; cited from earlier work

In the case of CCN(CC)CC(=O)Nc1c(C)cccc1C [lidocaine], the “response of COVID-19 patients with early signs of respiratory distress” value ([1]; 10 patients, sublingual) is listed as “responded well”, the “effective adult unit dose” value ([1]; delivered oromucosally or sublingually, 4-6 times a day) is listed as 60 to 100 mg and the “dose at which methemoglobinemia can occur” value [2] is listed as 4-5 mg/kg bodyweight.
